“Also recorded” adds a separate entry of the source.
What was measured:
Type in all cases: in vivo
[1] = tested on: turnover of dopamine in the basal ganglions; experiment: Determination of Homovanillinic Acid (HVA) in rat brain; details: rats; for Increase in HVA, %: two hours, titer in untreated rats set at 100%
From the text: […] Thereafter, the homovanillinic acid is extracted from the supernatant portion of a homogenized mixture of the brains of the treated rats into butyl acetate and later into an aqueous solution and is oxidized with potassium ferric cyanide to a fluorescent dimer. […] The homovanillinic acid titer in untreated rats is arbitrarily set at 100%.

[2] = cataleptic effect in rats (intraperitoneal); details: for TD50 at 6 h: recorded every 30 minutes over 6 hours, read-out: ED50 (dose at which 50% of the animals are cataleptic)
Description: The following compounds were tested:
The test animals are considered to be cataleptic when the homolateral extremities remain in the crossed position for at least 10 seconds. The number of cataleptic animals is recorded every 30 minutes over a 6-hour period.

[3] = Rotating Rod Test (coordinated motor performance of mice); details: for ED50: Mus musculus, po, read-out: ED50 (dose which reduces the holding on period of the mice by 50%); for activity in the Rotating Rod Test (in words): compared with chlorpromazine
Description: In the Rotating Rod Test, the ability of mice to achieve a coordinated motor performance is investigated. After peroral administration of the test substance, the mice are placed upon a horizontal slowly rotating rod and the time they remain […] the rod is recorded.

[4] = "Pole Climbing" Test, conditioned reaction and unconditioned reaction of rats; details: for ED50: Rattus norvegicus, po, read-out: ED50 (Blocking of the conditioned reaction); for Quotient-ED10 (Blocking of the unconditioned reaction)/ED50 (Blocking of the conditioned reaction): higher quotient = stronger selectivity of the neuroleptic effect
From the text: The test provides information regarding the behavioral reactions of rats. Rats are trained to avoid an electrical stimulus (unconditioned stimulation) which is effected through a base grid a few seconds after an acoustical signal (conditioned stimulation) by climbing up a vertical rod in the test chamber. The blocking of the conditioned reaction is expressed by the parameter ED50 (mg/kg. p.o.), the blocking of the unconditioned reaction is expressed by the parameter ED10 (mg/kg. p.o.).

[5] = rat, in vivo, ip, rats, intraperitoneal
[6] = rats, intraperitoneal, as compared to chlorpromazine

Compound | activity in the HVA test relative to chlorpromazine (in words) [1] | Increase in HVA, % ([1]; 50 mg/kg p.o.) | TD50 at 6 h [2, 5] | cataleptic effect (in words) [2, 6] | ED50 ([3]; mice, peroral) | activity in the Rotating Rod Test (in words) ([3]; mice, peroral, maleate) | ED50 ([4]; rats, p.o.) | quality (selectivity) of the neuroleptic activity relative to chlorpromazine (in words) ([4]; rats, p.o.) | strength of the neuroleptic activity relative to chlorpromazine (in words) ([4]; rats, p.o.) | Quotient-ED10 (Blocking of the unconditioned reaction)/ED50 (Blocking of the conditioned reaction) ([4]; rats, p.o.) | activity in the Rotating Rod Test (in words) ([3]; mice, peroral) | ED50 [3] | Increase in HVA, % ([1]; 20 mg/kg p.o.) | cataleptic effect (in words) ([2]; rat, in vivo, ip) | ED50 [4]
O=C(O)/C=C\C(=O)O.OCCCN1CCN(C2Cc3cc(Cl)ccc3Sc3ccc(F)cc32)CC1 (stereo not drawn) [Product C, 4-(2-chloro-8-fluoro-10,11-dihydro-dibenzo[b,f]thiepin-10-yl)-1-piperazinepropanol maleate] | nearly as potent as that of chlorpromazine | 273% | 64 mg/kg | only very weak cataleptic effect |  |  |  |  |  |  |  |  |  |  | 
CN1CCN(C2Cc3cc(Cl)ccc3Sc3cc(F)ccc32)CC1.O=C(O)/C=C\C(=O)O (stereo not drawn) [Product A, 1-(2-chloro-7-fluoro-10,11-dihydro-dibenzo[b,f]thiepin-10-yl)-4-methylpiperazine maleate] | nearly as potent as that of chlorpromazine | 280% | 70 mg/kg | only very weak cataleptic effect | 5.8 mg/kg | strong activity; also recorded: activity approximates that of chlorpromazine | 30 mg/kg | about equal to that of chlorpromazine | about half that of chlorpromazine | 3.3 |  |  |  |  | 
CN1CCN(C2Cc3ccc(Cl)cc3Sc3ccc(F)cc32)CC1.O=C(O)/C=C\C(=O)O (stereo not drawn) [Product B, 1-(3-chloro-8-fluoro-10,11-dihydro-dibenzo[b,f]thiepin-10-yl)-4-methylpiperazine maleate] |  |  | 100 mg/kg | only very weak cataleptic effect | 3.1 mg/kg |  | 27 mg/kg | considerably superior to that of chlorpromazine | about half of that of chlorpromazine | 11.0 | superior to chlorpromazine |  |  |  | 
CN(C)CCCN1c2ccccc2Sc2ccc(Cl)cc21 [Chlorpromazine, chlorpromazine, reference compound] |  |  |  |  |  |  |  |  |  | 3.5 |  | 5 mg/kg | 321% | does demonstrate cataleptic effects | 11.6 mg/kg

Reference: patent publication US3966737A, “Fluoro-substituted dibenso[b,f] thiepins” (priority 1973, dated 1976)
